Measurements from PubChem BioAssay AID720671 (NMMLSC, 2013).
Activity calls are given as the source filed them. How the calls were made is not given here.

What follows are molecules tested against Botulinum neurotoxin type F light chain protease (Clostridium botulinum) (assay: inhibition of botulinum toxin F protease cleavage – biochemical, multiplex microsphere, Powder Set 03, dose response (AID 720671)). Details: multiplex microsphere protease cleavage assay, BoNT/F LC.
In the case of `O=C(Nc1ccc2nc(-c3ccccc3)c(-c3ccccc3)nc2c1)C1CCCC1`, the EC50 is reported as > 20 µM (inactive). With `CC(C)(C)NC(=O)Nc1ccc2nc(-c3ccccc3)c(-c3ccccc3)nc2c1` the EC50 was > 20 µM (inactive). In the case of `COc1ccc(-c2nc3nc(-c4ccc(F)cc4)cn3nc2-c2ccc(OC)cc2)cc1`, the EC50 is reported as > 20 µM (inactive). For `Cc1ccc(-c2nc3nc(-c4ccc(OC(F)(F)F)cc4)cn3nc2-c2ccc(C)cc2)cc1`, the EC50 was > 20 µM (inactive). `O=C(Nc1ccc2nc(-c3ccccc3)c(-c3ccccc3)nc2c1)C1CCC1` was tested, and the EC50 was > 20 µM (inactive). With `COC(=O)Nc1ccc2nc(-c3cccs3)c(-c3cccs3)nc2c1` the EC50 was > 20 µM (inactive). `CCCOC(=O)Nc1ccc2nc(-c3cccs3)c(-c3cccs3)nc2c1` was tested, and the EC50 was > 20 µM (inactive). With `Cc1ccc(-c2nc3nc(-c4ccc(F)cc4)cn3nc2-c2ccc(C)cc2)cc1` the EC50 was > 20 µM (inactive). `COc1cccc(-c2cn3nc(-c4ccccc4)c(-c4ccccc4)nc3n2)c1` was tested, and the EC50 was > 20 µM (inactive). For `CC(C)CS(=O)(=O)Nc1ccc2nc(-c3ccccc3)c(-c3ccccc3)nc2c1`, the EC50 was > 20 µM (inactive). With `CC(C)OC(=O)Nc1ccc2nc(-c3ccccc3)c(-c3ccccc3)nc2c1` the EC50 was > 20 µM (inactive). `CC(C)NC(=O)Nc1ccc2nc(-c3cccs3)c(-c3cccs3)nc2c1` was tested, and the EC50 was > 20 µM (inactive). With `CCCS(=O)(=O)Nc1ccc2nc(-c3ccccc3)c(-c3ccccc3)nc2c1` the EC50 was > 20 µM (inactive). `CCOC(=O)Nc1ccc2nc(-c3ccccc3)c(-c3ccccc3)nc2c1` was tested, and the EC50 was > 20 µM (inactive). In the case of `COC(=O)Nc1ccc2nc(-c3ccccc3)c(-c3ccccc3)nc2c1`, the EC50 is reported as > 20 µM (inactive). `CCCS(=O)(=O)Nc1ccc2nc(-c3cccs3)c(-c3cccs3)nc2c1` was tested, and the EC50 was > 20 µM (inactive). In the case of `COc1ccccc1-c1cn2nc(-c3ccc(C)cc3)c(-c3ccc(C)cc3)nc2n1`, the EC50 is reported as > 20 µM (inactive). In the case of `CCCNC(=O)Nc1ccc2nc(-c3ccccc3)c(-c3ccccc3)nc2c1`, the EC50 is reported as > 20 µM (inactive). In the case of `O=C(Nc1ccc2nc(-c3cccs3)c(-c3cccs3)nc2c1)C1CCC1`, the EC50 is reported as > 20 µM (inactive). `CCS(=O)(=O)Nc1ccc2nc(-c3ccccc3)c(-c3ccccc3)nc2c1` was tested, and the EC50 was > 20 µM (inactive). For `COc1ccc(-c2nc3nc(-c4cccc(OC)c4)cn3nc2-c2ccc(OC)cc2)cc1`, the EC50 was > 20 µM (inactive). With `O=C(Nc1ccc2nc(-c3ccccc3)c(-c3ccccc3)nc2c1)C1CC1` the EC50 was > 20 µM (inactive). With `O=S(=O)(Nc1ccc2nc(-c3cccs3)c(-c3cccs3)nc2c1)C1CC1` the EC50 was > 20 µM (inactive). `N#Cc1ccc(-c2cn3nc(-c4ccccc4)c(-c4ccccc4)nc3n2)cc1` was tested, and the EC50 was > 20 µM (inactive). With `Fc1ccc(-c2nc3nc(-c4ccccc4)cn3nc2-c2ccc(F)cc2)cc1` the EC50 was 8.9 µM. `COc1ccc(-c2nc3nc(-c4cccc(F)c4)cn3nc2-c2ccc(OC)cc2)cc1` gave an EC50 of 4.4 µM. For `COc1ccc(-c2nc3nc(-c4ccc(C#N)cc4)cn3nc2-c2ccc(OC)cc2)cc1`, the EC50 was > 20 µM (inactive). For `O=C(Nc1ccc2nc(-c3cccs3)c(-c3cccs3)nc2c1)C1CCCC1`, the EC50 was > 20 µM (inactive). In the case of `O=S(=O)(Nc1ccc2nc(-c3ccccc3)c(-c3ccccc3)nc2c1)C1CC1`, the EC50 is reported as > 20 µM (inactive). In the case of `COc1ccc(-c2nc3nc(-c4ccc(OC(F)(F)F)cc4)cn3nc2-c2ccc(OC)cc2)cc1`, the EC50 is reported as > 20 µM (inactive). For `CCCCOC(=O)Nc1ccc2nc(-c3cccs3)c(-c3cccs3)nc2c1`, the EC50 was > 20 µM (inactive). With `COc1cccc(-c2cn3nc(-c4ccc(C)cc4)c(-c4ccc(C)cc4)nc3n2)c1` the EC50 was > 20 µM (inactive). Molecule `Cc1ccc(-c2nc3nc(-c4ccc(C#N)cc4)cn3nc2-c2ccc(C)cc2)cc1` has an EC50 of 11.2 µM. With `CC(Oc1ccccc1)C(=O)Nc1ccc2nc(-c3ccccc3)c(-c3ccccc3)nc2c1` (configuration not stated) the EC50 was > 20 µM (inactive). With `CC(C)NC(=O)Nc1ccc2nc(-c3ccccc3)c(-c3ccccc3)nc2c1` the EC50 was > 20 µM (inactive). `COc1ccc(-c2cn3nc(-c4ccc(OC)cc4)c(-c4ccc(OC)cc4)nc3n2)cc1` was tested, and the EC50 was > 20 µM (inactive). In the case of `O=C(Nc1ccc2nc(-c3ccccc3)c(-c3ccccc3)nc2c1)OCc1ccccc1`, the EC50 is reported as > 20 µM (inactive). `COc1ccc(-c2nc3nc(-c4ccccc4OC)cn3nc2-c2ccc(OC)cc2)cc1` gave an EC50 of 5.2 µM. In the case of `CCC(=O)Nc1ccc2nc(-c3ccccc3)c(-c3ccccc3)nc2c1`, the EC50 is reported as > 20 µM (inactive). In the case of `COc1ccc(-c2cn3nc(-c4ccccc4)c(-c4ccccc4)nc3n2)c(OC)c1`, the EC50 is reported as > 20 µM (inactive). With `CC(=O)Nc1ccc2nc(-c3ccccc3)c(-c3ccccc3)nc2c1` the EC50 was > 20 µM (inactive). In the case of `CCCOC(=O)Nc1ccc2nc(-c3ccccc3)c(-c3ccccc3)nc2c1`, the EC50 is reported as > 20 µM (inactive). `COc1ccc(-c2cn3nc(-c4ccc(C)cc4)c(-c4ccc(C)cc4)nc3n2)cc1` was tested, and the EC50 was > 20 µM (inactive). `COc1ccc(-c2nc3nc(-c4ccc(OC)cc4OC)cn3nc2-c2ccc(OC)cc2)cc1` was tested, and the EC50 was > 20 µM (inactive). `CCNC(=S)Nc1ccc2nc(-c3ccccc3)c(-c3ccccc3)nc2c1` was tested, and the EC50 was > 20 µM (inactive). For `O=C(Nc1ccc2nc(-c3cccs3)c(-c3cccs3)nc2c1)OCc1ccccc1`, the EC50 was > 20 µM (inactive). In the case of `N#Cc1ccc(-c2cn3nc(-c4ccc(F)cc4)c(-c4ccc(F)cc4)nc3n2)cc1`, the EC50 is reported as > 20 µM (inactive). With `CCNC(=O)Nc1ccc2nc(-c3ccccc3)c(-c3ccccc3)nc2c1` the EC50 was > 20 µM (inactive). For `COc1ccc(-c2nc3nc(-c4ccc(S(C)(=O)=O)cc4)cn3nc2-c2ccc(OC)cc2)cc1`, the EC50 was > 20 µM (inactive). `CCNC(=O)Nc1ccc2nc(-c3cccs3)c(-c3cccs3)nc2c1` was tested, and the EC50 was > 20 µM (inactive). For `COc1cccc(-c2cn3nc(-c4ccc(F)cc4)c(-c4ccc(F)cc4)nc3n2)c1`, the EC50 was 7.9 µM. `COc1ccc(-c2nc3nc(-c4ccccc4)cn3nc2-c2ccc(OC)cc2)cc1` was tested, and the EC50 was > 20 µM (inactive). Work on `Fc1ccc(-c2nc3nc(-c4cccc(F)c4)cn3nc2-c2ccc(F)cc2)cc1` yielded an EC50 of 5.7 µM. With `CC(C)CS(=O)(=O)Nc1ccc2nc(-c3cccs3)c(-c3cccs3)nc2c1` the EC50 was > 20 µM (inactive). With `Clc1ccc(-c2cn3nc(-c4ccccc4)c(-c4ccccc4)nc3n2)c(Cl)c1` the EC50 was > 20 µM (inactive). With `COc1ccccc1-c1cn2nc(-c3ccccc3)c(-c3ccccc3)nc2n1` the EC50 was > 20 µM (inactive). For `Fc1ccc(-c2cn3nc(-c4ccccc4)c(-c4ccccc4)nc3n2)cc1`, the EC50 was > 20 µM (inactive). `CCC(=O)Nc1ccc2nc(-c3cccs3)c(-c3cccs3)nc2c1` was tested, and the EC50 was > 20 µM (inactive). For `CCOC(=O)Nc1ccc2nc(-c3cccs3)c(-c3cccs3)nc2c1`, the EC50 was > 20 µM (inactive). For `CS(=O)(=O)c1ccc(-c2cn3nc(-c4ccc(F)cc4)c(-c4ccc(F)cc4)nc3n2)cc1`, the EC50 was > 20 µM (inactive). For `CC(C)OC(=O)Nc1ccc2nc(-c3cccs3)c(-c3cccs3)nc2c1`, the EC50 was > 20 µM (inactive). `COc1ccc(-c2cn3nc(-c4ccc(C)cc4)c(-c4ccc(C)cc4)nc3n2)c(OC)c1` was tested, and the EC50 was > 20 µM (inactive). In the case of `O=C(Nc1ccc2nc(-c3ccccc3)c(-c3ccccc3)nc2c1)C1CCCCC1`, the EC50 is reported as > 20 µM (inactive). For `Cc1ccc(-c2nc3nc(-c4ccc(S(C)(=O)=O)cc4)cn3nc2-c2ccc(C)cc2)cc1`, the EC50 was > 20 µM (inactive). For `COc1ccccc1-c1cn2nc(-c3ccc(F)cc3)c(-c3ccc(F)cc3)nc2n1`, the EC50 was 5.7 µM. With `FC(F)(F)Oc1ccc(-c2cn3nc(-c4ccccc4)c(-c4ccccc4)nc3n2)cc1` the EC50 was > 20 µM (inactive). For `Cc1ccc(-c2cn3nc(-c4ccc(F)cc4)c(-c4ccc(F)cc4)nc3n2)cc1`, the EC50 was > 20 µM (inactive). In the case of `CCCCOC(=O)Nc1ccc2nc(-c3ccccc3)c(-c3ccccc3)nc2c1`, the EC50 is reported as > 20 µM (inactive). `O=C(Nc1ccc2nc(-c3cccs3)c(-c3cccs3)nc2c1)NC1CCCC1` was tested, and the EC50 was > 20 µM (inactive). In the case of `CC(C)(C)C(=O)Nc1ccc2nc(-c3ccccc3)c(-c3ccccc3)nc2c1`, the EC50 is reported as > 20 µM (inactive). With `Cc1ccc(-c2nc3nc(-c4ccccc4)cn3nc2-c2ccc(C)cc2)cc1` the EC50 was 5.4 µM. For `COc1ccc(-c2cn3nc(-c4ccc(F)cc4)c(-c4ccc(F)cc4)nc3n2)cc1`, the EC50 was > 20 µM (inactive). With `COc1ccc(-c2nc3nc(-c4ccc(C)cc4)cn3nc2-c2ccc(OC)cc2)cc1` the EC50 was > 20 µM (inactive). `Fc1ccc(-c2cn3nc(-c4ccc(F)cc4)c(-c4ccc(F)cc4)nc3n2)cc1` showed an EC50 of 4 µM. In the case of `Cc1ccc(-c2nc3nc(-c4cccc(F)c4)cn3nc2-c2ccc(C)cc2)cc1`, the EC50 is reported as > 20 µM (inactive). In the case of `COc1ccc(-c2cn3nc(-c4ccc(F)cc4)c(-c4ccc(F)cc4)nc3n2)c(OC)c1`, the EC50 is reported as 1.5 µM. With `CS(=O)(=O)c1ccc(-c2cn3nc(-c4ccccc4)c(-c4ccccc4)nc3n2)cc1` the EC50 was > 20 µM (inactive). `Cc1ccc(-c2cn3nc(-c4ccc(C)cc4)c(-c4ccc(C)cc4)nc3n2)cc1` was tested, and the EC50 was > 20 µM (inactive). `Fc1ccc(-c2nc3nc(-c4ccc(OC(F)(F)F)cc4)cn3nc2-c2ccc(F)cc2)cc1` was tested, and the EC50 was > 20 µM (inactive). In the case of `O=C(Nc1ccc2nc(-c3ccccc3)c(-c3ccccc3)nc2c1)NC1CCCC1`, the EC50 is reported as > 20 µM (inactive). With `O=C(Nc1ccc2nc(-c3cccs3)c(-c3cccs3)nc2c1)C1CC1` the EC50 was > 20 µM (inactive). For `Fc1cccc(-c2cn3nc(-c4ccccc4)c(-c4ccccc4)nc3n2)c1`, the EC50 was 18 µM.
